Test results from patent publication US20200392158A1, “INHIBITORS OF LEUCINE RICH REPEAT KINASE 2” (GLAXOSMITHKLINE INTELLECTUAL PROPERTY DEVELOPMENT LIMITED, priority 2017, published 2020).

Target: T1, LRRK2 kinase in SH-SY5Y cells over-expressing recombinant full length LRRK2 (Homo sapiens, UniProt Q5S007)
T1 construct: A BacMam virus expressing full length recombinant LRRK2 was purchased from Invitrogen; host or cells: SH-SY5Y human neuroblastoma cells transduced with BacMam LRRK2 virus
Assay: Recombinant cellular LRRK2 AlphaScreen assay (LRRK2 Ser935 phosphorylation)
Assay type: cell-based
Settings: 60 min
Procedure, shortened: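 SH-SY5Y cells transduced with BacMam full-length LRRK2 (MOI 50) for 24 h, then treated 60 min at 37 °C with compound (11-point 1:4 series, top 10 uM, 0.1% DMSO). Lysates probed by AlphaScreen for pSer935 vs total LRRK2; values fitted to a sigmoidal dose-response model.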

T1 sequence (Q5S007 whole entry): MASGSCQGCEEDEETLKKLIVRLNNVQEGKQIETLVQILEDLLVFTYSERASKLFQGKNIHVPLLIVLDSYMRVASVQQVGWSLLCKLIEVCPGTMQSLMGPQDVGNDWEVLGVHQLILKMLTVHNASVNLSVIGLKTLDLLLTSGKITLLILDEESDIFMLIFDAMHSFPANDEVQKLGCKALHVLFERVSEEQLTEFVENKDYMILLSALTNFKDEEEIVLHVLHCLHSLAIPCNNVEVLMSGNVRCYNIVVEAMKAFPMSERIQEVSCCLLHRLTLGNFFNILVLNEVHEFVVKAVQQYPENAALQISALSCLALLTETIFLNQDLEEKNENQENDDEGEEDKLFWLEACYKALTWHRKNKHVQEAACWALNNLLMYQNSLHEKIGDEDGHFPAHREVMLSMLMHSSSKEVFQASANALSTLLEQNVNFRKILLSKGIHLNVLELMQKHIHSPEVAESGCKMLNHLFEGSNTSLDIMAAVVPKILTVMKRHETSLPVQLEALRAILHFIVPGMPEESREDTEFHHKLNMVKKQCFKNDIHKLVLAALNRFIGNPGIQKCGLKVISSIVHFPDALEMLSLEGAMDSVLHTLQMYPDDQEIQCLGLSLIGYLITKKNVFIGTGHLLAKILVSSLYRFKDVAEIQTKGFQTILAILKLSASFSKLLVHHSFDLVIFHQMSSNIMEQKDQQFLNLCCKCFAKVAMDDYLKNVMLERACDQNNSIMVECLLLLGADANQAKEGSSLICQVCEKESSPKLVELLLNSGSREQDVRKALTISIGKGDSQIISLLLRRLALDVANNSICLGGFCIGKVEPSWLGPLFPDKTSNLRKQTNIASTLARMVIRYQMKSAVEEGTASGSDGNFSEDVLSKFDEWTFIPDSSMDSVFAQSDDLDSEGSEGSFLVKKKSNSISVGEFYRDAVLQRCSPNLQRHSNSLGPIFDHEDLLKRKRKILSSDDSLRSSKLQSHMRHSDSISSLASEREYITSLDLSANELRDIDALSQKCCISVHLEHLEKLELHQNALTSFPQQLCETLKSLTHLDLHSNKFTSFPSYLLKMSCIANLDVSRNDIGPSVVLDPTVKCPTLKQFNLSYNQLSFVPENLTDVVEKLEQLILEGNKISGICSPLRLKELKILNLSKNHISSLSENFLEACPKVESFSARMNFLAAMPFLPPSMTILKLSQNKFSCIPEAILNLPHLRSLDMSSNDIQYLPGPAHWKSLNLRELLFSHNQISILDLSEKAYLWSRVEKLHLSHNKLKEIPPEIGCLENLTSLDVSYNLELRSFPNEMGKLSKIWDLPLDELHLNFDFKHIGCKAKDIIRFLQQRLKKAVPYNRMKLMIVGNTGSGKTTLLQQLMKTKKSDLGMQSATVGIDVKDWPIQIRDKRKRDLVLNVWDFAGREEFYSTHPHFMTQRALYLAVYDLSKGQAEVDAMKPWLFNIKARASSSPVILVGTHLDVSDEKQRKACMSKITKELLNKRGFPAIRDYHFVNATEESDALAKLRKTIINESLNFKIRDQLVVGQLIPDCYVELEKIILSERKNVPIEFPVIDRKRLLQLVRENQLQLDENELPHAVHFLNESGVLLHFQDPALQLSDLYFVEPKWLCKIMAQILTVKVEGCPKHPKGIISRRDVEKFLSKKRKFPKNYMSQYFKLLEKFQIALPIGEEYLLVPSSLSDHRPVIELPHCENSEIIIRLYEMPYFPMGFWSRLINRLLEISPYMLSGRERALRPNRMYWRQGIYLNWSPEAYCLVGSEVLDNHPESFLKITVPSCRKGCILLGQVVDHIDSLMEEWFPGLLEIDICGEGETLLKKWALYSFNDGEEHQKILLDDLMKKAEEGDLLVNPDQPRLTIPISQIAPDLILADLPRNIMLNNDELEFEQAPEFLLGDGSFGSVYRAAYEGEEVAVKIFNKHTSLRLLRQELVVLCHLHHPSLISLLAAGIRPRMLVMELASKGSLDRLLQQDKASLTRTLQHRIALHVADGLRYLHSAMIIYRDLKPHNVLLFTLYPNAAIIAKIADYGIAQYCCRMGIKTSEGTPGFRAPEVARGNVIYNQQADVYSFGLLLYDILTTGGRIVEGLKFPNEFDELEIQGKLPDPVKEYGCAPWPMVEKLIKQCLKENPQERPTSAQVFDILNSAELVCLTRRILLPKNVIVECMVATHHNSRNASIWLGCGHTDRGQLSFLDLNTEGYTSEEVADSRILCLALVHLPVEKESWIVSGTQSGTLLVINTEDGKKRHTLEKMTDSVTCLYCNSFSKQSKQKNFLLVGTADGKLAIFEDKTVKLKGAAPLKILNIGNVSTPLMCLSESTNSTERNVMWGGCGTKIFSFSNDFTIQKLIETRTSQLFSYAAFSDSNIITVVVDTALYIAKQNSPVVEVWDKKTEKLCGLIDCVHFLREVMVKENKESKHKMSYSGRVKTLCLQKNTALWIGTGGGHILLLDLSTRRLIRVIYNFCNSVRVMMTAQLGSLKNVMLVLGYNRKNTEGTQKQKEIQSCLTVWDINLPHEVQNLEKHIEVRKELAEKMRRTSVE

IC50, ≤ 100 nM:
Cc1c2c(nn1C1CCOCC1)OCCC(C)Nc1nc(ncc1C(F)(F)F)N2 (single isomer, unassigned) [E291, 4,11-Dimethyl-5-(oxan-4-yl)-14-(trifluoromethyl) -8-oxa-2,5,6,12,16,17-hexaazatricyclo[11.3.1.0^3,7]heptadeca-1(16),3,6,13(17),14-pentaene]
Clc1cnc2nc1NCCCOc1nn(C3CCOCC3)c(Cl)c1N2 [E13, 4,14-Dichloro-5-(oxan-4-yl)-8-oxa-2,5,6,12,16,17-hexaazatricyclo[11.3.1.0^3,7]heptadeca-1(16),3,6,13(17),14-pentaene]
Cc1c2c(nn1C1COC1)OCC[C@@H](C)Nc1nc(ncc1Cl)N2 [E52, (11R)-14-chloro-4,11-dimethyl-5-(oxetan-3-yl)-8-oxa-2,5,6,12,16,17-hexaazatricyclo [11.3.1.0^3,7]heptadeca-1(16),3,6,13(17),14-pentaene]
Cc1c2c(nn1C1CC(F)CN(C3COC3)C1)OCC[C@@H](C)Nc1nc(ncc1Cl)N2 (stereo partly drawn) [E410, (11R)-14-Chloro-5-[5-fluoro-1-(oxetan-3-yl)piperidin-3-yl]-4,11-dimethyl-8-oxa-2,5,6,12,16,17 hexaazatricyclo[11.3.1.0^3,7] heptadeca-1(16),3,6,13(17),14-pentaene]
COC1COc2nc(ncc2Cl)Nc2c(nn(C3CCOCC3)c2C)OC1 (single isomer, unassigned) [E328, 14-Chloro-10-methoxy-4-methyl-5-(oxan-4-yl)-8,12-dioxa-2,5,6,16,17-pentaazatricyclo[11.3.1.0^3,7]heptadeca-1(16),3,6,13(17),14-pentaene]
FC(F)c1c2c(nn1C1CCOCC1)OCCCNc1nc(ncc1C(F)(F)F)N2 [E118, 4-(Difluoromethyl)-5-(oxan-4-yl)-14-(trifluoromethyl)-8-oxa-2,5,6,12,16,17-hexaazatricyclo[11.3.1.0^3,7]heptadeca-1(16),3,6, 13(17),14-pentaene]
Cc1c2c(nn1C1(C)CCOCC1)OCC[C@@H](C)Nc1nc(ncc1Cl)N2 [E437, (11R)-14-Chloro-4,11-dimethyl-5-(4-methyloxan-4-yl)-8-oxa-2,5,6,12,16,17-hexaazatricyclo[11.3.1.0^3,7]heptadeca-1(16),3,6,13(17),14-pentaene]
COC1CNc2nc(ncc2Cl)Nc2c(nn(C3CCC(C)CC3)c2C)OC1 (single isomer, unassigned) [E255, 14-Chloro-10-methoxy-4-methyl-5-(4-methylcyclohexyl)-8-oxa-2,5,6,12,16,17-hexaazatricyclo [11.3.1.0^3,7] heptadeca-1(16),3,6,13(17),14-pentaene]
Cc1c2c(nn1C1CCOCC1F)OCCCNc1nc(ncc1Cl)N2 (single isomer, unassigned) [E233, 14-Chloro-5-(3-fluorooxan-4-yl)-4-methyl-8-oxa-2,5,6,12,16,17-hexaazatricyclo[11.3.1.0^3,7]heptadeca-1(16),3,6,13 (17),14-pentaene]
Cc1c2c(nn1C1CCC(N3CCC(F)C3)CC1)OCCCNc1nc(ncc1Cl)N2 (single isomer, unassigned) [E152, 14-Chloro-5-[4-(3-fluoropyrrolidin-1-yl)cyclohexyl]-4-methyl-8-oxa-2,5,6,12,16,17-hexaazatricyclo[11.3.1. 0^3,7]heptadeca-1(16),3,6,13(17),14-pentaene]
Cc1c2c(nn1C1CCOC(CO)C1)OCC[C@@H](C)Nc1nc(ncc1Cl)N2 (stereo partly drawn) [E331, {4-[(11R)-14-Chloro-4,11-dimethyl-8-oxa-2,5,6,12,16,17-hexaazatricyclo[11.3.1.0^3,7]heptadeca-1(16),3,6,13(17),14-pentaen-5-yl]oxan-2-yl}methanol]
Cc1c2c(nn1C1CCOCC1C)OCCCNc1nc(ncc1Cl)N2 (stereo not shown) [E139, 14-Chloro-4-methyl-5-(3-methyloxan-4-yl)-8-oxa-2,5,6,12,16,17-hexaazatricyclo[11.3.1.0^3,7]heptadeca-1(16),3,6,13(17),14-pentaene]
COC1CCC(n2nc3c(c2C)Nc2ncc(Cl)c(n2)NCC(OC)CO3)CC1 (single isomer, unassigned) [E239, 14-Chloro-10-methoxy-5-(4-methoxycyclohexyl)-4-methyl-8-oxa-2,5,6,12,16,17-hexaazatricyclo [11.3.1. 0^3,7]heptadeca-1(16),3,6,13(17),14-pentaene]
CCOC(=O)C(C)(C)n1nc2c(c1C)Nc1ncc(Cl)c(n1)NC(C)CCO2 (single isomer, unassigned) [E38, Ethyl 2-{14-chloro-4,11-dimethyl-8-oxa-2,5,6,12,16,17-hexaazatricyclo [11.3.1.0^3,7]heptadeca-1(16),3,6,13(17),14-pentaen-5-yl}-2-methylpropanoate]
Cc1c2c(nn1C1CCC(N3CCOCC3)CC1)OCCCNc1nc(ncc1Cl)N2 (single isomer, unassigned) [E380, 14-Chloro-4-methyl-5-[4-(morpholin-4-yl)cyclohexyl]-8-oxa-2,5,6,12,16,17-hexaazatricyclo [11.3.1.0^3,7]heptadeca-1(16),3,6,13(17),14-pentaene]
Cc1c2c(nn1C1CC3(COC3)C1)OCCCNc1nc(ncc1Cl)N2 [E300, 14-Chloro-4-methyl-5-{2-oxaspiro[3.3]heptan-6-yl}-8-oxa-2,5,6,12,16,17-hexaazatricyclo[11.3.1.0^3,7]heptadeca-1(16),3,6,13(17),14-pentaene]
COC1CNc2nc(ncc2Cl)Nc2c(nn(C3CCOCC3)c2Cl)OC1 (stereo not shown) [E339, 4,14-Dichloro-10-methoxy-5-(oxan-4-yl)-8-oxa-2,5,6,12,16,17-hexaazatricyclo[11.3.1.0^3,7]heptadeca-1(16),3,6,13(17),14-pentaene]
COC1CNc2nc(ncc2Cl)Nc2c(nn(C3CCOC(C)C3)c2C)OC1 (single isomer, unassigned) [E206, 14-Chloro-10-methoxy-4-methyl-5-(2-methyloxan-4-yl)-8-oxa-2,5,6,12,16,17-hexaazatricyclo [11.3.1.0^3,7] heptadeca-1(16),3,6,13(17),14-pentaene]
N#Cc1c2c(nn1C1CCOCC1)OCCCNc1nc(ncc1Cl)N2 [E14, 14-Chloro-5-(oxan-4-yl)-8-oxa-2,5,6,12,16,17-hexaazatricyclo[11.3.1.0^3,7]heptadeca-1(16),3,6,13(17),14-pentaene-4-carbonitrile]
Cc1c2c(nn1C1CCC(N3C[C@@H]4C[C@H]3CO4)CC1)OCCCNc1nc(ncc1Cl)N2 (single isomer, unassigned) [E50]
Cc1c2c(nn1C1CCCOC1)OCCCNc1nc(ncc1Cl)N2 (single isomer, unassigned) [E10, 14-Chloro-4-methyl-5-(oxan-3-yl)-8-oxa-2,5,6,12,16,17-hexaaza tricyclo-[11.3.1.0^3,7]heptadeca-1(16),3,6,13(17),14-pentaene]
Cc1c2c(nn1C1CCOC1)OCCCNc1nc(ncc1C(F)(F)F)N2 (stereo not shown) [E126, 4-Methyl-5-(oxolan-3-yl)-14-(trifluoromethyl)-8-oxa-2,5,6,12,16, 17-hexaazatricyclo[11.3.1.0^3,7]heptadeca-1(16),3,6,13(17),14-pentaene]
COC1CNc2nc(ncc2C(F)(F)F)Nc2c(nn(C3CCCOC3)c2C)OC1 (single isomer, unassigned) [E227, 10-Methoxy-4-methyl-5-(oxan-3-yl)-14-(trifluoromethyl)-8-oxa-2,5,6,12,16,17-hexaazatricyclo [11.3.1.0^3,7] heptadeca-1(17),3,6,13,15-pentaene]
C[C@@H]1CCOc2nn(C3CN(C4COC4)CCC3(F)F)c(Cl)c2Nc2ncc(Cl)c(n2)N1 (single isomer, unassigned) [E442]
Cc1c2c(nn1C1CCOCC1)OCC(F)CNc1nc(ncc1Cl)N2 (stereo not shown) [E16, 14-Chloro-10-fluoro-4-methyl-5-(oxan-4-yl)-8-oxa-2,5,6,12,16,17-hexaazatricyclo [11.3.1.0^3,7]heptadeca-1(16),3,6,13(17),14-pentaene]
COC1CNc2cc(ncc2Cl)Nc2c(nn(C3CCOCC3)c2C)OC1 (stereo not shown) [E342, 14-Chloro-10-methoxy-4-methyl-5-(oxan-4-yl)-8-oxa-2,5,6, 12,16-pentaazatricyclo[11.3.1.0^3,7]heptadeca-1(16),3,6,13(17), 14-pentaene]
Cc1c2c(nn1C1COCCC1F)OCCCNc1nc(ncc1Cl)N2 (single isomer, unassigned) [E86, 14-chloro-5-[4-fluorooxan-3-yl]-4-methyl-8-oxa-2,5,6,12,16,17-hexaazatricyclo [11.3.1.0^3,7]heptadeca-1(16),3,6,13(17),14-pentaene]
Cc1c2c(nn1C1CCC(C(F)(F)F)CC1)OCCC(C)Nc1nc(ncc1Cl)N2 (single isomer, unassigned) [E281, 4-Chloro-4,11-dimethyl-5-[4-(trifluoromethyl)cyclohexyl]-8-oxa-2,5,6,12,16,17-hexaazatricyclo[11.3.1.0^3,7] heptadeca-1(16),3,6,13(17),14-pentaene]
Cc1c2c(nn1C1CCOCC1C)OCCCNc1nc(ncc1Cl)N2 (single isomer, unassigned) [E412]
Cc1c2c(nn1C1COCCC1F)OCC[C@@H](C)Nc1nc(ncc1Cl)N2 (single isomer, unassigned) [E325]

Target: T2, full length G2019 human LRRK2 (Homo sapiens, UniProt Q5S007, R50H)
T2 construct: made in house; host or cells: HEK293 6E cells transduced with BacMam virus (virus generated in Sf9 cells)
Assay: Full length G2019 human LRRK2 inhibition mass spectrometry assay
Assay type: biochemical
Settings: LRRKtide to phospho-LRRKtide conversion, RapidFire MS, 2 mM ATP
Procedure, shortened: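 Purified full-length Flag-tagged G2019 LRRK2, ~25 nM, with 25 μM LRRKtide and 2 mM ATP in 50 mM Hepes pH 7.2, 10 mM MgCl2, 150 mM NaCl, 1 h at room temperature. Quenched with formic acid; phospho- and unphosphorylated LRRKtide measured by RapidFire MS. pIC50 from 4-parameter fit of % conversion, 11 points, top 100 μM.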

T2 sequence (Q5S007 with tags, fused parts or gaps R50H): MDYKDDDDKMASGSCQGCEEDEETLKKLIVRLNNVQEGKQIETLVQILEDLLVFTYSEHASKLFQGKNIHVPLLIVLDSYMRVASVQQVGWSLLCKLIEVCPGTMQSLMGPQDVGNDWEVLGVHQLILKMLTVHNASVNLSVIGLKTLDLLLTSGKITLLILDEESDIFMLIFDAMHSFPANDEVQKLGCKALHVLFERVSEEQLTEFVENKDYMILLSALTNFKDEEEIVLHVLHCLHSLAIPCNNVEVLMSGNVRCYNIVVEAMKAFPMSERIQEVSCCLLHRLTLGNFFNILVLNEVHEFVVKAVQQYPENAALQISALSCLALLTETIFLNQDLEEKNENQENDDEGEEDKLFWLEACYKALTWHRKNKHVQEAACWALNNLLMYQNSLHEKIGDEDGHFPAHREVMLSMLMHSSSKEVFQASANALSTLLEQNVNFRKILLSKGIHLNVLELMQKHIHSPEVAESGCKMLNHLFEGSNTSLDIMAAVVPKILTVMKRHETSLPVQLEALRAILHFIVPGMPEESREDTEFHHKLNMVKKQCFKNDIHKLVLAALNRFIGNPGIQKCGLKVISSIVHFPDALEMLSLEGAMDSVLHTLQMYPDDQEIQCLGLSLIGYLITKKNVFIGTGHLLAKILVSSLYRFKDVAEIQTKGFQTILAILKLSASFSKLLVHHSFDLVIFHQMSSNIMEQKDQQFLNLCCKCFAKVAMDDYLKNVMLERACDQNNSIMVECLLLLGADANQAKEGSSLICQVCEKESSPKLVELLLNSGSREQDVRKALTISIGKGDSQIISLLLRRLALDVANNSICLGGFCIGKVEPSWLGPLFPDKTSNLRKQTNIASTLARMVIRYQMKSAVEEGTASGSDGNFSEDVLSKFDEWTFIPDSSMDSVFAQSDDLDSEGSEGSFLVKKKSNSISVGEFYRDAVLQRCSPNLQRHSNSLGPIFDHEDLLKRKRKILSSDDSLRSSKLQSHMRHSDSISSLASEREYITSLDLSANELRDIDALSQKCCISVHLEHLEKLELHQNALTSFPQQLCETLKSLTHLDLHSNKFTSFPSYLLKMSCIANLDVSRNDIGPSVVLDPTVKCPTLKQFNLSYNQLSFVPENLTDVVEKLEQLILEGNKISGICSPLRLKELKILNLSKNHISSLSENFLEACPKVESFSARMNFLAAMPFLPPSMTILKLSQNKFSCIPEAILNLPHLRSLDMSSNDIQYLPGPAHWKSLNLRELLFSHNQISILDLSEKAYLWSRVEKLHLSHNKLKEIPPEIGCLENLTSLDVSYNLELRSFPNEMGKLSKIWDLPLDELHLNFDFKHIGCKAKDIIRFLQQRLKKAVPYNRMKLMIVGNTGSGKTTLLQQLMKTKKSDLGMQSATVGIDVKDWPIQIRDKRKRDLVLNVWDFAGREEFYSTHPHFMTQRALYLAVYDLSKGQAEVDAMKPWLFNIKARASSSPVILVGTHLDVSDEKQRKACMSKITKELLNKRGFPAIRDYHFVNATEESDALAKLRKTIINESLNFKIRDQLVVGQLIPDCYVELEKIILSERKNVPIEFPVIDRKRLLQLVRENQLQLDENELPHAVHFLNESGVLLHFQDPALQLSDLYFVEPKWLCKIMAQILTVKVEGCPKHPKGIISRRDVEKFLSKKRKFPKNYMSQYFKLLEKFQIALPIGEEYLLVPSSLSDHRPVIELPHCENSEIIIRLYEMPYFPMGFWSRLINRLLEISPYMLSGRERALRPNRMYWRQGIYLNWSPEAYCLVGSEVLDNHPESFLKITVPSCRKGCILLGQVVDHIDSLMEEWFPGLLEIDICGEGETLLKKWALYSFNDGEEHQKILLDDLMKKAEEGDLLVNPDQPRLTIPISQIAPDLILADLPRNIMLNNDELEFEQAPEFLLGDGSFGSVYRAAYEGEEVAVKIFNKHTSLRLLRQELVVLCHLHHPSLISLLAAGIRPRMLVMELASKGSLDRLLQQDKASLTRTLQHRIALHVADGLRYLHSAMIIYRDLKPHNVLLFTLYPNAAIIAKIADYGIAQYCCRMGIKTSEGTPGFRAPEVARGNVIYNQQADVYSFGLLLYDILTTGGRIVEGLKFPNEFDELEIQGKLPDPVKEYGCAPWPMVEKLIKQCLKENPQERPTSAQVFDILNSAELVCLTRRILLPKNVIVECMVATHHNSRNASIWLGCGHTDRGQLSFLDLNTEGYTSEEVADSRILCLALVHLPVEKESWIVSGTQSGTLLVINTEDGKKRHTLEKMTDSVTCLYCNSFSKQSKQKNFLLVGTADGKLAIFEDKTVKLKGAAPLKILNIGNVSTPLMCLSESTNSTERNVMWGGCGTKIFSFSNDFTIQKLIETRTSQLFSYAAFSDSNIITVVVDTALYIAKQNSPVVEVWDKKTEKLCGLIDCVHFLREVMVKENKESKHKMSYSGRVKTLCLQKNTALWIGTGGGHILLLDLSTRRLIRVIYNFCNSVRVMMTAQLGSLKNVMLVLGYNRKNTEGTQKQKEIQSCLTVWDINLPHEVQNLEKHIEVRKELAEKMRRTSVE

IC50, ≤ 100 nM:
Cc1c2c(nn1C1CCOCC1)OCCC(C)Nc1nc(ncc1C(F)(F)F)N2 (single isomer, unassigned) [E291, 4,11-Dimethyl-5-(oxan-4-yl)-14-(trifluoromethyl) -8-oxa-2,5,6,12,16,17-hexaazatricyclo[11.3.1.0^3,7]heptadeca-1(16),3,6,13(17),14-pentaene]
Clc1cnc2nc1NCCCOc1nn(C3CCOCC3)c(Cl)c1N2 [E13, 4,14-Dichloro-5-(oxan-4-yl)-8-oxa-2,5,6,12,16,17-hexaazatricyclo[11.3.1.0^3,7]heptadeca-1(16),3,6,13(17),14-pentaene]
Cc1c2c(nn1C1COC1)OCC[C@@H](C)Nc1nc(ncc1Cl)N2 [E52, (11R)-14-chloro-4,11-dimethyl-5-(oxetan-3-yl)-8-oxa-2,5,6,12,16,17-hexaazatricyclo [11.3.1.0^3,7]heptadeca-1(16),3,6,13(17),14-pentaene]
Cc1c2c(nn1C1CC(F)CN(C3COC3)C1)OCC[C@@H](C)Nc1nc(ncc1Cl)N2 (stereo partly drawn) [E410, (11R)-14-Chloro-5-[5-fluoro-1-(oxetan-3-yl)piperidin-3-yl]-4,11-dimethyl-8-oxa-2,5,6,12,16,17 hexaazatricyclo[11.3.1.0^3,7] heptadeca-1(16),3,6,13(17),14-pentaene]
